Experimental data published in patent US20220304976A1, “Method of simultaneously treating viral disease caused coronavirus, its variants and mutants using a pharmaceutical micronutrient composition” (priority 2021, published 2022).

Key:
hACE2 receptor = biological target: T1, hACE2 receptor (Homo sapiens, UniProt Q9BYF1); assay type: binding; settings: for Binging with ACE2 (% of control ± SD): Table 3; for Binging with ACE2 (% of control ± SD) / Binging to ACE2 (% of control ± DS): tested at 0.1 mg/ml; for Binging to ACE2 (% of control ± DS): Table 4
T1 construct: purchased GenScript

[1] = biological target: T2, RBD of SARS-CoV-2 spike protein binding to hACE2 receptor (Severe acute respiratory syndrome coronavirus 2, UniProt P0DTC2); assay: biochemical; settings: for inhibition at 100 µg/mL: 100 μg/ml, read-out: efficacy in inhibiting RBD binding to hACE2
T2 construct: purchased GenScript

[2] = system: SARS-CoV-2 spike protein pseudo-typed virions; assay type: cell-based
[3] = system: SARS-CoV-2 spike protein pseudo-typed virions; assay type: cell-based; remark: listed apart in the source

T1 sequence (Q9BYF1 18-740): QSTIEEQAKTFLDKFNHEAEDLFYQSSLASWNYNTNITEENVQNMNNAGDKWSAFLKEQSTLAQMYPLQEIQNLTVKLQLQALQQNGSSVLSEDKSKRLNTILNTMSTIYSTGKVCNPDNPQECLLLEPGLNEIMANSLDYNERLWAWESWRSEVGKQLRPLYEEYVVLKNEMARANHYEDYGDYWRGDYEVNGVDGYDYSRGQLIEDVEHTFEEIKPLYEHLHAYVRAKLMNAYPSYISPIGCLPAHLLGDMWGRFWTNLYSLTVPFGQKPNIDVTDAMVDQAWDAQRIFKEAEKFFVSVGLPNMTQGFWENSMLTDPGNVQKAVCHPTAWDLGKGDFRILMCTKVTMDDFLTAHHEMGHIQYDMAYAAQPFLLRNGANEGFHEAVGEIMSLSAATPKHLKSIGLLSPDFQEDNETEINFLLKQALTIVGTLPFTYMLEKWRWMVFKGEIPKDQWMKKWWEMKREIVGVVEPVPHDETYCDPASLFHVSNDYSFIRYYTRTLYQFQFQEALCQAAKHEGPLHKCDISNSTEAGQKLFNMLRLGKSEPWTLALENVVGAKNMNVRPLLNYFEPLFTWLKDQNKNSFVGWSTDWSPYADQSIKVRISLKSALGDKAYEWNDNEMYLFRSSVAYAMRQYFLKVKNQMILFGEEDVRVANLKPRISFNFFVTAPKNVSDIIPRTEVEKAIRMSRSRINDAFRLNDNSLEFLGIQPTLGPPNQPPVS

SMILES | Binging with ACE2 (% of control ± SD) (hACE2 receptor) | further results
O=C1O[C@H]2[C@@H]3OC(=O)c4cc(O)c(O)c(O)c4-c4c(O)c(O)c5oc(=O)c6c(c(O)c(O)c7oc(=O)c4c5c76)-c4c(cc(O)c(O)c4O)C(=O)OC[C@H]3OC(O)[C@@H]2OC(=O)c2cc(O)c(O)c(O)c2-c2c1cc(O)c(O)c2O (mixture of isomers) [Punicalagin] | 5.4 ± 2.3 % of control | 
C=C1CC[C@@H]2[C@](C)(CO)[C@H](O)CC[C@@]2(C)[C@@H]1C/C=C1/C(=O)OC[C@H]1O [Andrographolide] |  | Binding to RBD (% of control ± DS) [1]: 22.1 ± 2.5 % of control; Binging to ACE2 (% of control ± DS) (hACE2 receptor): 5.6 ± 2.4 % of control
O=c1cc(-c2ccc(O)cc2)oc2cc(O)cc(O)c12 [Apigenin] | 8.3 ± 1.9 % of control | 
O=c1cc(-c2ccccc2)oc2cc(O)c(O)c(O)c12 [Baicalein] | 7.4 ± 1.4 % of control | 
O=C(O)[C@H]1O[C@@H](Oc2cc3oc(-c4ccccc4)cc(=O)c3c(O)c2O)[C@H](O)[C@@H](O)[C@@H]1O [Baicalin] | 4.9 ± 1.9 % of control | 
COc1ccc2cc3[n+](cc2c1OC)CCc1cc2c(cc1-3)OCO2 [Berberine] | 9.4 ± 2.4 % of control | 
Oc1ccc2c(c1)OC[C@]1(O)Cc3cc(O)c(O)cc3[C@H]21 [Brazilin] | 4.6 ± 2.2 % of control | affinity in binding to the RBD-spike protein of SARS-CoV-2 (in words) [1]: exhibited the highest affinity; inhibition at 100 µg/mL [1]: 100%; concentration from which inhibition of transduction is statistically significant [2]: 10 µg/mL; binding to the ACE2 receptor itself (in words) (hACE2 receptor): neither brazilin, nor theaflavin-3,3′-digallate displayed binding affinity; inhibition of pseudo-typed virion binding to hACE2/A549 (in words) [3]: similarly inhibited binding
C=C(C)[C@@H]1CCC(C)=C[C@H]1c1c(O)cc(CCCCC)cc1O [Cannabidiol, reference compound] | 5.8 ± 2.0 % of control | 
CC(C)c1cc2c(c(O)c1O)[C@@]1(C(=O)O)CCCC(C)(C)[C@@H]1CC2 [Carnosic acid] | 6.9 ± 4.1 % of control | 
O[C@H]1[C@H](O)[C@@H](O)CN2CC[C@H](O)[C@H]12 [Castanospermine] | 5.5 ± 3.1 % of control | 
O=C(/C=C/c1ccc(O)c(O)c1)O[C@@H]1C[C@](O)(C(=O)O)C[C@@H](O)[C@H]1O [Chlorogenic acid] | 4.7 ± 1.6 % of control | 
COc1cc(/C=C/C(=O)CC(=O)/C=C/c2ccc(O)c(OC)c2)ccc1O [Curcumin] | 4.6 ± 2.4 % of control | affinity in binding to the RBD-spike protein of SARS-CoV-2 (in words) [1]: exhibited the highest affinity; inhibition at 100 µg/mL [1]: 100%; concentration from which inhibition of transduction is statistically significant [2]: 5.0 µg/mL; binding to the ACE2 receptor itself (in words) (hACE2 receptor): moderate binding; inhibition of pseudo-typed virion binding to hACE2/A549 (in words) [3]: similarly inhibited binding
O=c1c(O)c(-c2ccc(O)c(O)c2)oc2cc(O)ccc12 [Fisetin] | 6.0 ± 2.4 % of control | 
O=C(O)c1cc(O)c(O)c(O)c1 [Gallic acid] | 6.5 ± 1.3 % of control | 
O=c1c(-c2ccc(O)cc2)coc2cc(O)cc(O)c12 [Genistein] | 9.4 ± 2.7 % of control | 
CC1(C)[C@@H](O[C@H]2O[C@H](C(=O)O)[C@@H](O)[C@H](O)[C@H]2O[C@@H]2O[C@H](C(=O)O)[C@@H](O)[C@H](O)[C@H]2O)CC[C@]2(C)[C@H]3C(=O)C=C4[C@@H]5C[C@@](C)(C(=O)O)CC[C@]5(C)CC[C@@]4(C)[C@]3(C)CC[C@@H]12 [Glycyrrhizic acid] |  | Binging to ACE2 (% of control ± DS) (hACE2 receptor): 10.1 ± 2.8 % of control
COc1ccc([C@@H]2CC(=O)c3c(O)cc(O)cc3O2)cc1O [Hesperetin] | 4.9 ± 2.7 % of control | 
COc1c(O)cc2oc(-c3ccc(O)cc3)cc(=O)c2c1O [Hispidulin] | 7.4 ± 2.1 % of control | 
O=c1c(O)c(-c2ccc(O)cc2)oc2cc(O)cc(O)c12 [Kaempferol] | 6.2 ± 2.5 % of control | 
O=c1cc(-c2ccc(O)c(O)c2)oc2cc(O)cc(O)c12 [Luteolin] | 4.8 ± 1.6 % of control | 
O=C(O)CC(O)C(=O)O (stereo not shown) [Malic acid] | 5.8 ± 1.4 % of control | 
O=c1c(O)c(-c2ccc(O)cc2O)oc2cc(O)cc(O)c12 [Morin] | 5.6 ± 3.1 % of control | 
O=c1c(O)c(-c2cc(O)c(O)c(O)c2)oc2cc(O)cc(O)c12 [Myricetin] | 5.6 ± 2.1 % of control | 
O=C1C[C@@H](c2ccc(O)cc2)Oc2cc(O)cc(O)c21 [Naringenin] | 8.3 ± 1.6 % of control | Binding with RBD (% of control ± SD) [1]: 20 ± 5.1 % of control
C[C@@H]1O[C@@H](O[C@H]2[C@H](Oc3cc(O)c4c(c3)O[C@H](c3ccc(O)cc3)CC4=O)O[C@H](CO)[C@@H](O)[C@@H]2O)[C@H](O)[C@H](O)[C@H]1O [Naringin] | 3.7 ± 1.1 % of control | 
